Source: patent US11685744B2, “CDK inhibitors and their use as pharmaceuticals” (Prelude Therapeutics, Incorporated, priority 2020, dated 2023)

How the values were obtained:
CDK4/Cyclin D1 = CDK4/Cyclin D1 (Homo sapiens (Human), UniProt P11802); assay: CDK4/CyclinD1 enzymatic activity assay (TR-FRET); type: biochemical; details: ATP 2 mM, read-out: CDK4_D1 IC50
Experimental: CDK4/CyclinD1 Enzymatic Activity Assay
The inhibitory activity of compounds was evaluated in vitro using TR-FRET assay with white 384-well low volume microplate (Greiner Bio-One). CDK4/Cyclin D1 catalyzed phosphorylation of peptide in the presence and absence of compounds was measured. IC50 determination. Recombinant protein complex CDK4/Cyclin D1, expressed from insect cell, was purchased from ProQinase. Testing compounds were dissolved in DMSO at 0.1 mM and tested in 9-dose IC50 mode. The reaction mixture was prepared by mixing CDK4/CyclinD1 (1 nM final), ULight-4E-BP1 (100 nM final, Perkinelmer, TRF0128-D), and ATP (2 mM final) in assay buffer (20 mM of HEPES pH 7.4, 1 mM of EGTA, 0.05% BSA, 0.005% Tween 20, and 1 mM TCEP). The compound of interest in DMSO was added to each well in 3-fold serial dilution by dispenser (TECAN D300E). After 20 minutes preincubation at room temperature, MgCl2 (10 mM final) was added to initiate the reaction. Following a 60 minutes incubation at 37° C., the reaction was stopped by addition of 2 μL of quenching buffer consisting of Lance detection buffer (Perkinelmer CR97-100C), 2 nM LANCE Ultra Europium-anti-P-4E-BP1 (Perkinelmer, TRF0216-D), 10 mM EDTA, and incubate at room temperature for additional 60 minutes in dark. The reaction signal was measured by Envision multimode plate reader (PerkinElmer, 2102-0010). IC50 values were determined by fitting the data to the standard 4 parameters with Hill Slope using GraphPad Prism software.

[1] = test system: MCF7 adenocarcinoma cell line; assay: Cell proliferation studies in MCF7 cells (ATP-Lite, 10 days); type: cell-based; details: Homo sapiens, 240 h, read-out: PROLIFERATION_CTG_MCF7 IC50
Experimental: Cell Proliferation Studies in MCF7 Cells
Cell proliferation studies were conducted in MCF7 adenocarcinoma cell line. Cells were maintained in DMEM (Coming, Catalog #: 10-013-CV) supplemented with 10% v/v FBS (Gibco, Catalog #: 26140-079), 1% v/v Penicillin Streptomycin (Gibco, Catalog #15140-122) Cells were seeded in 384-well plates at a density of 100 or 200 cells/well. Compounds dissolved in DMSO were plated in quadruplicate using a digital dispenser (D300E, Tecan) and tested on a 9-point 3-fold serial dilution. Cells were incubated for 10 days in a 37° C. active humidified incubator at 5% CO2. A media exchange and second compound addition were performed on day 5. Cell viability was measured using the ATP-Lite 1-Step Luminescence reagent (Perkin Elmer, Catalog #: 6016731) as per manufacturer's instructions. Luminescence signal was measured with a multimode plate reader (Envision 2105, Perkin Elmer). Raw data files were imported to Dotmatics Screening Ultra for IC50 analysis. Luminescence values were normalized to both background and DMSO controls to obtain a percentage of viable cells relative to DMSO vehicle control.

Chain of CDK4/Cyclin D1 (P11802 whole entry): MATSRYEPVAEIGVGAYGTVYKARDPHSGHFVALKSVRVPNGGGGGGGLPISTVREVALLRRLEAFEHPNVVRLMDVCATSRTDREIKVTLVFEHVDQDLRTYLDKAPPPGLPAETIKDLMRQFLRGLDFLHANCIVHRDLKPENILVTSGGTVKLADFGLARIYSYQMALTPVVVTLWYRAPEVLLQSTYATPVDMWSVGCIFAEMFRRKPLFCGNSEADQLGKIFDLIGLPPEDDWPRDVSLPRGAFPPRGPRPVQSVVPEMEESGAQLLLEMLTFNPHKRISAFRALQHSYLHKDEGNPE
Chain of CDK4/Cyclin D1 (P24385 whole entry partner): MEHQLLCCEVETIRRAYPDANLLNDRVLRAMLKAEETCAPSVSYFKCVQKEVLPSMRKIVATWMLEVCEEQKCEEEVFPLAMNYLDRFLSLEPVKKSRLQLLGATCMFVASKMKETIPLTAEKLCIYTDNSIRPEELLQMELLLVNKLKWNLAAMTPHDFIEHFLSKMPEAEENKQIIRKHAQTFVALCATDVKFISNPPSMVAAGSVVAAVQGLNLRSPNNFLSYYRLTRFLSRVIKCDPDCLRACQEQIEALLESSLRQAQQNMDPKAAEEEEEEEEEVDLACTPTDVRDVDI

| IC50 (CDK4/Cyclin D1) [nM] | IC50 [1] [nM] | SMILES |
| --- | --- | --- |
| ≤ 20 | 200 to 2000 | CCN1CCN(Cc2ccc(Nc3ncc(F)c(-c4sc5c(nc(C)n5C5CCC5)c4C)n3)nc2)CC1 [Example 10, 4-(3-Cyclobutyl-2,6-dimethylthieno[2,3-d]imidazol-5-yl)-N-[5-[(4-ethylpiperazin-1-yl)methyl]pyridin-2-yl]-5-fluoropyrimidin-2-amine] |
| 20 to 200 | 200 to 2000 | Cc1c(-c2nc(Nc3ccc(N4CCC(F)(F)C4)cn3)ncc2F)sc2c1nc(C)n2C1CCCC1 [Example 11, 4-(3-Cyclopentyl-2,6-dimethyl-3H-thieno[2,3-d]imidazol-5-yl)-N-(5-(3,3-difluoropyrrolidin-1-yl)pyridin-2-yl)-5-fluoro-pyrimidin-2-amine] |
| ≤ 20 | 20 to 200 | Cc1nc2cc(-c3nc(Nc4ccc(N5CCN(C)CC5)cn4)ncc3F)sc2n1C1CCCC1 [Example 13, 4-(3-Cyclopentyl-2-methyl-3H-thieno[2,3-d]imidazol-5-yl)-5-fluoro-N-(5-(4-methylpiperazin-1-yl)pyridin-2-yl)pyrimidin-2-amine] |
| ≤ 20 | 20 to 200 | CCN1CCN(c2ccc(Nc3ncc(F)c(-c4cc5nccc(C(C)C)c5s4)n3)nc2)CC1 [Example 14, N-[5-(4-Ethylpiperazin-1-yl)pyridin-2-yl]-5-fluoro-4-(7-propan-2-ylthieno[3,2-b]pyridin-2-yl)pyrimidin-2-amine] |
| ≤ 20 | 20 to 200 | CCN1CCN(c2ccc(Nc3ncc(F)c(-c4sc5c(C6CCCC6)ccnc5c4Cl)n3)nc2)CC1 [Example 16, 4-(3-Chloro-7-cyclopentylthieno[3,2-b]pyridin-2-yl)-N-[5-(4-ethylpiperazin-1-yl)pyridin-2-yl]-5-fluoropyrimidin-2-amine] |
| 20 to 200 | 20 to 200 | CCN1CC2(C1)CN(c1ccc(Nc3ncc(F)c(-c4cc5nccc(C(C)(O)C(F)(F)F)c5s4)n3)nc1)C2 (stereo not shown) [Example 18, 2-[2-[2-[[5-(6-Ethyl-2,6-diazaspiro[3.3]heptan-2-yl)pyridin-2-yl]amino]-5-fluoropyrimidin-4-yl]thieno[3,2-b]pyridin-7-yl]-1,1,1-trifluoropropan-2-ol] |
| 20 to 200 | 200 to 2000 | CCN1CCN(Cc2ccc(Nc3ncc(F)c(-c4cc5nccc(C(C)C)c5s4)n3)nc2)CC1 [Example 19, N-[5-[(4-Ethylpiperazin-1-yl)methyl]pyridin-2-yl]-5-fluoro-4-(7-propan-2-ylthieno[3,2-b]pyridin-2-yl)pyrimidin-2-amine] |
| ≤ 20 | 20 to 200 | CCN1CCC(c2ccc(Nc3ncc(F)c(-c4sc5c(C6CCCC6)ccnc5c4Cl)n3)nc2)CC1 [Example 20, 4-(3-Chloro-7-cyclopentylthieno[3,2-b]pyridin-2-yl)-N-[5-(1-ethylpiperidin-4-yl)pyridin-2-yl]-5-fluoropyrimidin-2-amine] |
| 20 to 200 | 200 to 2000 | CCN1CCN(Cc2ccc(Nc3ncc(F)c(-c4sc5c(C6CCCC6)ccnc5c4C)n3)nc2)CC1 [Example 22, 4-(7-Cyclopentyl-3-methylthieno[3,2-b]pyridin-2-yl)-N-(5-((4-ethylpiperazin-1-yl)methyl)pyridin-2-yl)-5-fluoropyrimidin-2-amine] |
| 20 to 200 | 200 to 2000 | CCN1CCN(c2ccc(Nc3ncc(F)c(-c4cc5nccc(C6CCCC6)c5s4)n3)nc2)CC1 [Example 24, 4-(7-Cyclopentylthieno[3,2-b]pyridin-2-yl)-N-[5-(4-ethylpiperazin-1-yl)pyridin-2-yl]-5-fluoropyrimidin-2-amine] |
| 20 to 200 | 20 to 200 | CCN1CCN(Cc2ccc(Nc3ncc(F)c(-c4cc5nccc(C(C)(O)C(F)(F)F)c5s4)n3)nc2)CC1 (stereo not shown) [Example 25, 2-[2-[2-[[5-[(4-Ethylpiperazin-1-yl)methyl]pyridin-2-yl]amino]-5-fluoropyrimidin-4-yl]thieno[3,2-b]pyridin-7-yl]-1,1,1-trifluoropropan-2-ol] |
